# Laboratory results: patent publication US8273852B2, “Medium chain length polyhydroxyalkanoate polymer and method of making same” (Queen's University at Kingston, priority 2009, dated 2012)
# Columns and labels:
# β-oxidation pathway [1] = test: Continuous fermentation, cofeeding of dodecanoic acid and glucose, increasing acrylic acid; type: cell-based, Pseudomonas putida KT2440
# Protocol: (§1) Continuous fermentations were carried out in a 1.5 L stirred tank bioreactor (Bioflo IIc, New Brunswick Scientific, N.J., USA) with a working volume of 1.1 L. The fermentor was operated at 28.5±1° C. and the pH was automatically controlled at 6.85±0.05 using 2 N potassium hydroxide solution. The dissolved oxygen was monitored with an Ingold polarographic probe (available from Mettler-Toledo Ingold Inc., Bedford, Mass., USA) and maintained no lower than 30% air saturation with an aeration rate of 0.8 vvm (void volumes per minute) and an agitation speed up to 900 rpm. […] All other aqueous medium was mixed and fed together. The dilution rate of all continuous fermentations was controlled at […] by fixing the working volume and a constant aqueous medium feeding rate.
# (§2) During shake flask, batch, fed-batch, or continuous cultivations, fermentation broth samples were taken. Known amounts of such broths were centrifuged to obtain the medium's supernatant and concentrated biomass. The biomasses were washed with distilled water, centrifuged again, re-suspended, frozen, and lyophilized to obtain dried biomass. The supernatant was used to analyze carbon source, inhibitor, and nutrient concentration. The dried biomass was used to obtain the cell concentration, cellular PHA content and composition.
# (§3) Dried samples were weighed to obtain dry biomass amounts. PHA content and composition were determined by gas chromatographic method as described below (Sun, Z., et al. (2007). Appl. Microbiol. Biotechnol., 74:69). […]
# (§4) Known amount of dried biomass, or purified MCL-PHA, or MCL-PHA standard with known composition and elution time of each of its components, were reacted in 2 mL chloroform plus 1 mL methanol containing 15% (v/v) concentrated sulfuric acid as acidifying agent and 0.2% (w/v) benzoic acid as internal standard, at 100° C. for 4 hours. […] Methyl-3-hydroxyalkanoate was identified and its molar amount was calculated by comparing peak area to the corresponding peak of known methyl-3-hydroxyalkanoate generated from known MCL-PHA standard, which was characterized by NMR and GC/MS. […]
# β-oxidation pathway [2] = test: Fed-batch fermentation, cofeeding of nonanoic acid, glucose and acrylic acid; type: cell-based, Pseudomonas putida KT2440; details: nonanoic acid:glucose:acrylic acid 1.25:1:0.03 (w/w/w); by GC; throughout 32 hours fermentation
# Protocol: Fed-batch fermentations were conducted in a 5 L stirred tank bioreactor with 3 L working volume (Minifors, INFORS HT, Bottmingen, Switzerland). The specific growth rate was controlled at 0.25 h^−1 or 0.15 h^−1 by exponentially feeding the carbon sources as growth-limiting nutrients. β-oxidation inhibitor was added with the glucose feeding solution at a fixed mass as specified in the related examples. […]
# as §3, §4
# [3] = test system: Pseudomonas putida KT2440; test: Shake flask growth with acrylic acid, absorbance at 650 nm; type: cell-based; details: shake flasks
# Protocol: A basic glucose-only shake flask medium was a 100 mL liquid medium in a 500 mL Erlenmeyer flask. The medium comprised (g L^−1): (NH4)2SO4 (4.70), MgSO4.7H2O (0.80), Na2HPO4.7H2O (12.0), KH2PO4 (2.70), glucose (9.0), nutrient broth (1.0).
# The effect of acrylic acid on cell growth was determined using Pseudomonas putida KT2440 (ATCC 47054). Pseudonomas putida KT2440 (ATCC 47054) was maintained on nutrient agar plates at 4° C. before inoculation. The toxicity of a β-oxidation inhibitor, acrylic acid, to the growth of Pseudomonas putida KT2440 was determined by shake flask experiment. The cultivation conditions were 28° C. in a New Brunswick Shaker-Incubator at 200 rpm. The medium used was the basic glucose-only shake flask medium described above, plus appropriate amount of acrylic acid.
# 500 mL Erlenmeyer flasks were used with each containing 100 mL of medium. In addition to the basic medium described above, increasing concentrations of acrylic acid (AA) at 0, 0.2, 0.4, 0.8, 2.0 g/L were prepared in each flask. The first set of such flasks was cultured for 12 h and the second set of such flasks was cultured for 24 h. After the specified culturing time, a sample was taken to measure the absorbance at 650 nm in the spectrophotometer.
# β-oxidation pathway [4] = test: Continuous fermentation, cofeeding of octanoic acid and glucose, increasing acrylic acid; type: cell-based, Pseudomonas putida KT2440; details: inflow acrylic acid 0.2 g/L
# Protocol: as §1
# During shake flask, batch, fed-batch, or continuous cultivations, fermentation broth samples were taken. Known amounts of such broths were centrifuged to obtain the medium's supernatant and concentrated biomass. The biomasses were washed with distilled water, centrifuged again, re-suspended, frozen, and lyophilized to obtain dried biomass. […]
# as §3
# β-oxidation pathway [5] = test: Continuous fermentation, cofeeding of nonanoic acid and glucose, increasing acrylic acid; type: cell-based, Pseudomonas putida KT2440; details: inhibitor concentration increased from 0 to 0.15 g/L; value at highest concentration
# Protocol: (§5) Continuous fermentations were carried out in a 1.5 L stirred tank bioreactor (Bioflo IIc, New Brunswick Scientific, N.J., USA) with a working volume of 1.1 L. The fermentor was operated at 28.5±1° C. and the pH was automatically controlled at 6.85±0.05 using 2 N potassium hydroxide solution. The dissolved oxygen was monitored with an Ingold polarographic probe (available from Mettler-Toledo Ingold Inc., Bedford, Mass., USA) and maintained no lower than 30% air saturation with an aeration rate of 0.8 vvm (void volumes per minute) and an agitation speed up to 900 rpm. Nonanoic acid was fed separately at controlled speed by a peristaltic nutrient pump on the bioreactor. All other aqueous medium was mixed and fed together. The dilution rate of all continuous fermentations was controlled at […] by fixing the working volume and a constant aqueous medium feeding rate.
# During shake flask, batch, fed-batch, or continuous cultivations, fermentation broth samples were taken. Known amounts of such broths were centrifuged to obtain the medium's supernatant and concentrated biomass. […]
# as §3
# β-oxidation pathway [6] = test: Continuous fermentation, nonanoic acid as sole carbon source, increasing acrylic acid; type: cell-based, Pseudomonas putida KT2440
# Protocol: as §5
# as §2, with “The dried biomass was used to obtain the cell concentration, cellular PHA content and composition.” left out
# as §3, §4
smiles,measurement,setting,value
C=CC(=O)O [acrylic acid],mole percentage of C12,β-oxidation pathway [1]; inflow acrylic acid 0.2 g/L (FIG. 10B),60 mol %
same,molar C12 content,β-oxidation pathway [1]; inlet acrylic acid 0.1 g L^−1,34.5%
same,molar C12 content,β-oxidation pathway [1]; inlet acrylic acid 0.2 g L^−1,59%
same,"monomeric composition, C9 (3-OH-nonanoate)",β-oxidation pathway [2],87.8±0.8 mol %
same,reduction of Absorbance at λ=650 nm,"[3]; acrylic acid 0.2 g L^−1, 12 h and 24 h cultures, glucose medium",two fold
same,cell growth,[3]; acrylic acid greater than 0.4 g L^−1,either weak growth or no growth
same,mole percentage of C8,β-oxidation pathway [4],98 mol %
same,intracellular PHN content,β-oxidation pathway [5],~64%
same,mole percentage of C9,β-oxidation pathway [5],96 mol %
same,PHA content,"β-oxidation pathway [6]; acrylic acid 0.2 g L^−1, nonanoic acid only carbon source",very little PHA content
same,molar C9 fraction of the PHA produced,"β-oxidation pathway [6]; at increased inhibitor concentration, nonanoic acid only, maximum reached",about 90%
same,acrylic acid concentration that affected monomeric composition,"β-oxidation pathway [6]; inflow concentration, nonanoic acid only, steady state",0.02 g/L
